Laboratory results: patent US10041047B2, “Compositions and methods for epithelial stem cell expansion and culture” (The Brigham and Women's Hospital, Inc., priority 2013, dated 2018)

Tests used:
[1] = tested on: Lgr5+ stem/progenitor cells derived from the mouse inner ear; experiment: Culture of inner ear (cochlear) Lgr5-GFP epithelial cells in Matrigel; assay type: cell-based; settings: organ of Corti single cells, Matrigel, 8 days
Source text: The same culture condition (EGF, Noggin, R-spondin1, or “ENR”) as used in Lgr5+ small intestinal stem cell cultures was first established.
Isolated organ of Corti from Lgr5-GFP mice were dissociated into single cells using accutase and cultured in multiple combinations of soluble factors and small molecules in Matrigel for 8 days. The resulting cultures were further dissociated into single cells and analyzed using FACS. […] In addition, the combination of EGF, bFGF and IGF-1 (designated as EFI) improved cell proliferation and GFP expression compared with the ENR condition (FIG. 14A-14C).
To further investigate the effects of individual growth factors when combined with CHIR and VPA, growth factors including Mitogenic growth factors (EGF, bFGF and IGF-1) as well as the Wnt agonist R-spondin 1 in combination with CHIR and VPA were tested.

[2] = tested on: Lgr5+ stem cells in small intestinal crypts; experiment: Small intestinal crypt culture from Lgr5-GFP mice in Matrigel: cell proliferation and Lgr5-GFP expression; assay type: cell-based, mouse
Experimental: Crypts and single Lgr5-GFP cells were isolated as previously described (Sato et al., 2009). Briefly, the proximal half of the small intestine was harvested, opened longitudinally, and washed with cold PBS to remove luminal content. The tissue was then cut into 2-4 mm pieces with scissors and further washed 5-10 times with cold PBS by pipetting up and down using a 10-ml pipette. Tissue fragments were incubated with 2 mM EDTA in PBS for 30 min on ice. After removal of EDTA, tissue fragments were washed with PBS to release crypts. Supernatant fractions enriched in crypts were collected, passed through a 70 μm cell strainer and centrifuged at 300 g for 5 minutes. The cell pellet was re-suspended with cell culture media without growth factors and centrifuged at 150 g to remove single cells. Crypts were then cultured or used for single cell isolation. To obtain single cells, crypts were incubated in culture medium for 45 minutes at 37° C. and triturated with a glass pipette. Dissociated cells were passed through 20 μm cell strainer, negative stained with propidium iodide and single viable GFP-high cells were sorted by flow cytometry (FACS Aria, BD) as previously described (Sato et al., 2009). Small intestinal crypts isolated from Lgr5-EGFP-ires-CreERT2 mice were embedded in Matrigel and cultured under conventional culture conditions in the presence of EGF, Noggin and R-spondin 1 (collectively referred to as ENR) leading to organoids with crypts and villus-like domains and GFP^+ cells at the crypt tips, consistent with previous reports (Sato et al., 2009). Isolated crypts or single cells were cultured as previously described (Sato et al., 2009) with minimal modification. Briefly, crypts or single cells were entrapped in Matrigel and plated at the center of wells in a 24-well plate. After polymerization of Matrigel (growth factor reduced; BD Bioscience), 500 μl of culture medium (Advanced DMEM/F12 (Life Technologies)) was added containing growth factors including EGF (50 ng/ml, Life Technologies), Noggin (100 ng/ml, Peprotech) and R-spondin 1 (500 ng/ml, R&D) and small molecules including CHIR99021 (3 μM, Stemgent) and Valproic Acid (1 mM, Sigma-Aldrich). For comparison of different culture conditions, small molecules or growth factors were added to freshly isolated crypts immediately after plating in Matrigel to test the ability to minimize potential differentiation of the ISC within the crypts and thus sustain crypt cultures. Cell culture media was changed every other day. For single cell culture, cells were embedded in Matrigel containing Jagged-1 peptide (1 μM; AnaSpec) and Y-27632 (10 μM; Tocris) was added for the first 2 days. Cells were passaged either as cell colonies as previously described (Sato et al., 2009) or as single cells. For single cell passage, cell culture medium was removed and Accutase (Life Technologies) was added. After incubation at 37° C. for 10-20 minutes, cell colonies were dissociated into single cells by pipetting. Cells were then washed, embedded in fresh Matrigel and plated into 24-well plates. Cells cultured in the CV condition were passaged every 6 days at a 1:20 split ratio. Approximately half of the cultured crypts contained GFP+ cells, which is consistent with the in vivo GFP expression of Lgr5-GFP mice (FIG. 1).
The growth factors used in the ENR condition provide essential, but not adequate cues to sustain the self-renewal of Lgr5^+ stem cells. To identify factors essential to maintaining the self-renewal status of intestinal stem cells, selected small molecules that modulate signaling pathways of ISCs, such as Wnt, Notch, and BMP, were tested under the ENR condition, using the Lgr5-GFP reporter.
CHIR is a highly-specific GSK3 inhibitor that activates the Wnt/β-catenin signaling pathway (Bain et al., 2007), and has been used to maintain the self-renewal state of embryonic stem cells (Ying et al., 2008). […]

Lgr5+ stem cells = experiment: Controlled differentiation of Lgr5+ stem cells after CV culture (RT-PCR and staining of differentiation markers); assay type: cell-based, mouse; settings: colonies from 6 days CV, then 4 days with ENR plus agents (FIG. 7B)
[3] = crypts cultured 6 days, agent added to ENR condition
[4] = multiple concentrations (FIG. 9E)

| SMILES | GFP expression (in words) [1] | cell proliferation (in words) [1] | GFP expression (percentage and relative GFP intensity of GFP+ cells) [2, 3] | cell proliferation of crypt cells (organoid size and cell numbers) ([2]; crypts cultured 6 days, agent added to ENR condition, compared to ENR) | need of R-Spondin1 to promote GFP expression ([2]; increasing the concentration of CHIR, crypts 6 days) | ChgA expression (Lgr5+ stem cells) | rescue of cell proliferation and GFP expression following Notch inhibition ([2]; ENR-C with DAPT 5 μM and VPA 0.25-4 mM, 3 days) | GFP expression at multiple concentrations [2, 4] | cell proliferation at higher concentration [2, 4] | Lysozyme expression (Lgr5+ stem cells) | Muc2 expression (Lgr5+ stem cells) |
| --- | --- | --- | --- | --- | --- | --- | --- | --- | --- | --- | --- |
| Cc1cnc(-c2cnc(NCCNc3ccc(C#N)cn3)nc2-c2ccc(Cl)cc2Cl)[nH]1 [CHIR99021, 6-[[2-[[4-(2,4-Dichlorophenyl)-5-(5-methyl-1H-imidazol-2-yl)-2-pyrimidinyl]amino]ethyl]amino]-3-pyridinecarbonitrile] | not CHIR or VPA alone | not CHIR or VPA alone | increased the percentage and relative GFP intensity | promoted the proliferation | eliminated the need of R-Spondin1 | did not significantly influence | – | – | – | – | – |
| CCCC(CCC)C(=O)O [Valproic Acid] | not CHIR or VPA alone | not CHIR or VPA alone | significantly increased | – | – | lower level of expression | rescued | maintained GFP expression | marked proliferation inhibition effect | lower level of expression | lower level of expression |
